Source: patent US9796720B2, “Imidazole-derived modulators of the glucocorticoid receptor” (BRISTOL-MYERS SQUIBB COMPANY, priority 2013, dated 2017)
Where two headings read alike, the source gives them in different places.

What was measured:
AP-1 = experiment: Cellular transrepressional assay (AP-1 luciferase reporter in A549 cells, PMA-activated); type: cell-based; details: for EC50: read-out: AP-1 (EC50, nM) (measured in cellular transrepression assay); for Emax: read-out: AP-1 Max % inhibition (measured in cellular transrepression assay)
Procedure: Cellular Transrepressional Assay
To measure the ability of test molecules to inhibit AP-1 induced transcriptional activity we utilized an A549 cell which was stably transfected with a plasmid containing 7×AP-1 DNA binding sites (pAP-1-Luc plasmid, Stratagene Co. La Jolla, Calif.) followed by the gene for luciferase. Cells were activated with 10 ng/ml of phorbol myristic acid (PMA) plus or minus test molecules for 7 hours. After 7 hours a luciferase reagent was added to measure luciferase enzymatic activity in the cell. After a 10 minute incubation of luciferase reagent with cells, luminescence was measured in a TOPCOUNT® luminescence counter. Repression of AP-1 activity was calculated as the percentage decrease in the signal induced by PMA alone. Test molecules were analyzed in the concentration range from 0.1 nM to 40 μM. EC50s were determined by using standard curve fitting methods such as Excel fit (Microsoft Co.). An EC50 is the test molecule concentration at which there is a 50% repression of the maximal inhibition of transcription, i.e., a 50% reduction of AP-1 activity.

[1] = biological target: human full-length glucocorticoid receptor (Homo sapiens (Human), UniProt P04150); experiment: Glucocorticoid Receptor Binding Assay (II), fluorescence polarization competitor assay; details: recombinant human full-length GR cell lysate, Fluormone GS1; read-out: GR (Ki, nM) (measured in GR binding Assay II)
Chain of human full-length glucocorticoid receptor (P04150 whole entry): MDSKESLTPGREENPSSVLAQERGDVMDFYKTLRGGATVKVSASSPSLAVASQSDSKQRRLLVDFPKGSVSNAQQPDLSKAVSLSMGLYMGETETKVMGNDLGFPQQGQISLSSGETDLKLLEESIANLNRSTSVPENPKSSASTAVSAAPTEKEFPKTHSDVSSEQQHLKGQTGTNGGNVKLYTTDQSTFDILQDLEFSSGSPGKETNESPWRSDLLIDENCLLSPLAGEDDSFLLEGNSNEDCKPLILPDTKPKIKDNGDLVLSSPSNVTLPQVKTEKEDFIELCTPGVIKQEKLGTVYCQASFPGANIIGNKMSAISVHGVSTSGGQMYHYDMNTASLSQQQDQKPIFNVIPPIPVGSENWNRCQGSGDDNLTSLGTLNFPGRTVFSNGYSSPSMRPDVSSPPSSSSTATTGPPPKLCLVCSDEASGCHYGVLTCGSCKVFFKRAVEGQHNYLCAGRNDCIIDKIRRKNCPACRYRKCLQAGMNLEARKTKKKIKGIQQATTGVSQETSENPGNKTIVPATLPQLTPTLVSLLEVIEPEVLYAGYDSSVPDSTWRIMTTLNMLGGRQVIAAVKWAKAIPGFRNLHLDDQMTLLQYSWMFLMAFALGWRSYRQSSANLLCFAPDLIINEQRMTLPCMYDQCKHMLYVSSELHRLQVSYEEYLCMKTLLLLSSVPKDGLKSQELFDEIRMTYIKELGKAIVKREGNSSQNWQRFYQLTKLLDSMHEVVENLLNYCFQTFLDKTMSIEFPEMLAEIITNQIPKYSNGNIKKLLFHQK
Procedure: Glucocorticoid Receptor Binding Assay (II)
In order to measure the binding of compounds on the glucocorticoid receptor a commercially available kit was used (Glucocorticoid receptor competitor assay kit, PanVera Co., Madison, Wis., P2816). Briefly, a cell lysate containing recombinantly expressed human full-length glucocorticoid receptor was mixed with a fluorescently labeled glucocorticoid (1 nM Fluormone GS1) in the presence or absence of test compound. After one hour at room temperature, the fluorescence polarization (FP) of the samples were measured.

[2] = A549 cells, 7xAP-1 luciferase, PMA 10 ng/ml, 7 hours

Ki [1] [nM] | EC50 (AP-1; [2]) [nM] | Structure (SMILES) | EC50 (AP-1; 7 h) [nM] | Emax (AP-1; 7 h) [%] | Emax (AP-1; [2]) [%]
65.8 | 2500 | CC(C)(c1nc2cncnc2[nH]1)[C@@H]1c2ccc(-c3ccc(S(C)(=O)=O)cc3)nc2Oc2c(F)cccc21 [Example 17, (S)-5-(2-(9H-Purin-8-yl)propan-2-yl)-9-fluoro-2-(4-(methylsulfonyl)phenyl)-5H-chromeno[2,3-b]pyridine] | – | – | 27.3
144 | 5000 | COC(=O)c1ccc(-c2ccc3c(n2)Oc2c(F)cccc2[C@@H]3C(C)(C)c2nc3nccnc3[nH]2)cn1 [Example 26, (S)-Methyl 5-(5-(2-(1H-imidazo[4,5-b]pyrazin-2-yl)propan-2-yl)-9-fluoro-5H-chromeno[2,3-b]pyridin-2-yl)picolinate] | – | – | 14.3
16 | 61.1 | CC(C)(c1nc2nccnc2[nH]1)[C@@H]1c2ccc(-c3ccc(N4CCOCC4)cc3)nc2Oc2c(F)cccc21 [Example 18, (S)-5-(2-(1H-Imidazo[4,5-b]pyrazin-2-yl)propan-2-yl)-9-fluoro-2-(4-morpholinophenyl)-5H-chromeno[2,3-b]pyridine] | – | – | 50.6
2.35 | 3.85 | CC(C)(O)c1ccc(-c2ccc3c(n2)Oc2c(F)cccc2[C@@H]3C(C)(C)c2nc3nccnc3[nH]2)cc1 [Example 3, (S)-2-(4-(5-(2-(1H-Imidazo[4,5-b]pyrazin-2-yl)propan-2-yl)-9-fluoro-5H-chromeno[2,3-b]pyridin-2-yl)phenyl)propan-2-ol] | – | – | 65
2.91 | 19.9 | CC(C)(c1nc2nccnc2[nH]1)[C@@H]1c2ccc(-c3ccc(N)cc3)nc2Oc2c(F)cccc21 [Example 22, (S)-4-(5-(2-(1H-Imidazo[4,5-b]pyrazin-2-yl)propan-2-yl)-9-fluoro-5H-chromeno[2,3-b]pyridin-2-yl)aniline] | – | – | 51
1.4 | 14.2 | CC(C)(c1nc2nccnc2[nH]1)[C@@H]1c2ccc(-c3ccccc3)nc2Oc2c(F)cccc21 [Example 20, (S)-5-(2-(1H-Imidazo[4,5-b]pyrazin-2-yl)propan-2-yl)-9-fluoro-2-phenyl-5H-chromeno[2,3-b]pyridine] | – | – | 40

Structure (SMILES) | Ki [1] [nM] | EC50 (AP-1; [2]) [nM] | EC50 (AP-1; 7 h) [nM] | Emax (AP-1; 7 h) [%] | Emax (AP-1; [2]) [%]
CC(C)S(=O)(=O)c1ccc(-c2ccc3c(n2)Oc2c(F)cccc2[C@@H]3C(C)(C)c2nc3nccnc3[nH]2)cc1 [Example 7, (S)-5-(2-(1H-Imidazo[4,5-b]pyrazin-2-yl)propan-2-yl)-9-fluoro-2-(4-(isopropylsulfonyl)phenyl)-5H-chromeno[2,3-b]pyridine] | 1.4 | – | 12.2 | 54.2 | –
CC(C)(c1nc2nccnc2[nH]1)[C@@H]1c2ccc(-c3ccc(S(C)(=O)=O)cc3)nc2Oc2c(F)cccc21 [Example 5, (S)-5-(2-(1H-Imidazo[4,5-b]pyrazin-2-yl)propan-2-yl)-9-fluoro-2-(4-(methylsulfonyl)phenyl)-5H-chromeno[2,3-b]pyridine] | 2.89 | – | 29.5 | 55.8 | –
